Measured values from patent US6673345B2, “Anti-parasite astacin metalloendopeptidase antibodies” (Heska Corporation, priority 1994, dated 2004).
“Also recorded” adds a separate entry of the source.

How the values were obtained:
D. immitis larvae (L3) = test: Effect of protease inhibitors on D. immitis larval molting in culture; format: cell-based, Dirofilaria immitis; settings: for % reduction (of molt versus control): 72 hours; for % molt: L3 in NI medium, evaluated at 72 hours, control 82.6; for Observed movement and condition of treated larvae compared to controls: observed daily throughout the study; for Effect on ability of larvae to molt (in words): treatment of L3, ANOVA overall P=0.0001
astacin = astacin (Astacus astacus, UniProt P07584); settings: cited from earlier work
Sequence of astacin (P07584 50-249 limits assumed): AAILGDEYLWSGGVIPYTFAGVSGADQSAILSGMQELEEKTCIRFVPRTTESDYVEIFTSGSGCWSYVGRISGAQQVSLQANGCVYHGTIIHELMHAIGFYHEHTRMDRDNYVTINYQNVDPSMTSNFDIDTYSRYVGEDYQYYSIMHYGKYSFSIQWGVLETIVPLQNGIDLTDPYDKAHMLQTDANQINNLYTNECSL

[1] = system: ES proteins displaying metalloprotease activity (about 60 kD, about 95 kD, at least about 200 kD); settings: 2 mM EDTA in reaction buffer, about 37° C., 66 hours

CC(C)C[C@H](NC(=O)[C@@H](O)[C@H](N)Cc1ccccc1)C(=O)O [Bestatin]
% reduction (of molt versus control) (D. immitis larvae (L3); 1.0 mM inhibitor): 27.3%
% molt (D. immitis larvae (L3); 1.0 mM inhibitor): 60.0%
% reduction (of molt versus control) (D. immitis larvae (L3); 2.5 mM inhibitor): 57.9%
% molt (D. immitis larvae (L3); 2.5 mM inhibitor): 34.8%
% reduction (of molt versus control) (D. immitis larvae (L3); 5.0 mM inhibitor): 94.1%
% molt (D. immitis larvae (L3); 5.0 mM inhibitor): 4.9%
Observed movement and condition of treated larvae compared to controls (D. immitis larvae (L3)): moved much more slowly
Effect on ability of larvae to molt (in words) (D. immitis larvae (L3)): significantly reduces the ability of the larvae to molt

c1cnc2c(c1)ccc1cccnc12 [1,10-phenanthroline]
Inhibition of astacin activity (astacin): inhibited

O=C(O)CN(CCN(CC(=O)O)CC(=O)O)CC(=O)O [EDTA, ethylene diamine tetraacetic acid]
Inhibition of astacin activity (astacin): inhibited
Inhibition of ES metalloprotease (collagenase) activity [1]: completely inhibited

TIMP1: Tissue inhibitor of metalloproteinases, protein inhibitor of zinc endopeptidases
Inhibition of astacin activity (astacin): do not demonstrate inhibitory activity

CC(C)C[C@H](NP(=O)(O)O[C@@H]1O[C@@H](C)[C@H](O)[C@@H](O)[C@H]1O)C(=O)N[C@@H](Cc1c[nH]c2ccccc12)C(=O)O [Phosphoramidon]
% reduction (of molt versus control) (D. immitis larvae (L3); 1.0 mM inhibitor): 48.4%
% molt (D. immitis larvae (L3); 1.0 mM inhibitor): 42.6%
% reduction (of molt versus control) (D. immitis larvae (L3); 2.5 mM inhibitor): 85.1%
% molt (D. immitis larvae (L3); 2.5 mM inhibitor): 12.3%
% reduction (of molt versus control) (D. immitis larvae (L3); 5.0 mM inhibitor): 100.0%
% molt (D. immitis larvae (L3); 5.0 mM inhibitor): 0.0%
Observed movement and condition of treated larvae compared to controls (D. immitis larvae (L3)): very active; also recorded: in poor shape by the end of the study
Effect on ability of larvae to molt (in words) (D. immitis larvae (L3)): significantly reduces the ability of the larvae to molt
